Source: US20220395472A1 (Dermavant Sciences GmbH, priority 2021, published 2022)

Test system: adults with plaque psoriasis
Experiment: Long-term open-label extension study (PSOARING 3): Physician Global Assessment (PGA), treatment episodes, treatment success, remittive effect
Assay type: in vivo, human
Description: This extension study consisted of up to 40 weeks of treatment and a 4 week, safety follow up period.
At the completion of the Week 12 visit of the DB, pivotal Phase 3 study, eligibility of the subjects opting to enroll in this extension study was confirmed. Study visits during the treatment period for all subjects occurred every 4 weeks (±3 days). A phone call was performed at Week 2 (Day 15). Unscheduled visits may have occurred, as needed. Subjects who withdrew from this study before Week 40 returned to the study center for an Early Termination visit. The total duration of this extension study participation was 44 weeks. Subjects in this study were treated as follows based on their PGA score from the Week 12 visit in the DB, pivotal Phase 3 study (Study DMVT 505 3001 or Study DMVT 505 3002).
The PGA was used to assess the primary efficacy endpoint in this study. The PGA is a clinical tool for assessing the current state/severity of a subject's psoriasis at a given time point. It is a static, 5 point, morphological assessment of overall disease severity, as determined by the Investigator, using the clinical characteristics of erythema, scaling, and plaque thickness/elevation as guidelines; higher PGA scores represent more severe disease (0=clear, 1=almost clear, 2=mild, 3=moderate, and 4=severe). The BSA affected was not considered in scoring of the PGA. Variations of the PGA are frequently used in clinical studies because it is a simple assessment, similar to those used in clinical practice. The PGA was performed first, prior to the % BSA, PASI, and LTS assessments.
Time to event parameters, such as the time from treatment success to subsequent worsening (PGA≥2) or duration of treatment episode, were summarized by the Kaplan Meier product limit method using OC.

[1] = Baseline PGA = 2, Tapinarof (Pivotal) group
[2] = Baseline PGA = 2, Vehicle (Pivotal) group
[3] = Baseline PGA = 3, Tapinarof (Pivotal) group

SMILES: CC(C)c1c(O)cc(/C=C/c2ccccc2)cc1O [Tapinarof, 3,5-Dihydroxy-4-isopropyl-trans-stilbene]
- Duration of 1st Success, Mean (SD) [1]: 81.3 (71.03) days
- Duration of 1st Success, Median [1]: 57.0 days
- Duration of 2nd Episode, Mean (SD) [1]: 78.2 (54.89) days
- Duration of 2nd Episode, Median [1]: 84.5 days
- Duration of 2nd Success, Mean (SD) [1]: 27.3 (30.06) days
- Duration of 2nd Success, Median [1]: 25.0 days
- Duration of 3rd Episode, Mean (SD) [1]: 1.0 (NE) days
- Duration of 3rd Episode, Median [1]: 1.0 days
- Duration of Last Episode, Mean (SD) [1]: 175.4 (98.91) days
- Duration of Last Episode, Median [1]: 197.0 days
- Duration of Last Success, Mean (SD) [1]: 76.1 (72.82) days
- Duration of Last Success, Median [1]: 56.0 days
- Total Duration of Treatment Episodes, Mean (SD) [1]: 190.1 (90.58) days
- Total Duration of Treatment Episodes, Median [1]: 223.0 days
- Total Duration of Treatment Success, Mean (SD) [1]: 84.6 (71.17) days
- Total Duration of Treatment Success, Median [1]: 78.0 days
- Average Duration of Episodes, Mean (SD) [2]: 169.8 (89.68) days
- Average Duration of Episodes, Median [2]: 194.0 days
- Average Duration of Treatment Success, Mean (SD) [2]: 94.6 (65.57) days
- Average Duration of Treatment Success, Median [2]: 87.0 days
- Duration of 1st Episode, Mean (SD) [2]: 173.2 (86.28) days
- Duration of 1st Episode, Median [2]: 194.0 days
- Duration of 1st Success, Mean (SD) [2]: 110.8 (72.69) days
- Duration of 1st Success, Median [2]: 115.5 days
- Duration of 2nd Episode, Mean (SD) [2]: 46.0 (42.39) days
- Duration of 2nd Episode, Median [2]: 27.0 days
- Duration of 2nd Success, Mean (SD) [2]: 34.7 (51.14) days
- Duration of 2nd Success, Median [2]: 27.5 days
- Duration of 3rd Episode, Mean (SD) [2]: 42.5 (19.09) days
- Duration of 3rd Episode, Median [2]: 42.5 days
- Duration of 3rd Success, Mean (SD) [2]: 29.0 (NE) days
- Duration of 3rd Success, Median [2]: 29.0 days
- Duration of Last Episode, Mean (SD) [2]: 166.2 (95.09) days
- Duration of Last Episode, Median [2]: 194.0 days
- Duration of Last Success, Mean (SD) [2]: 79.8 (77.74) days
- Duration of Last Success, Median [2]: 44.5 days
- Total Duration of Treatment Episodes, Mean (SD) [2]: 184.6 (78.19) days
- Total Duration of Treatment Episodes, Median [2]: 196.5 days
- Total Duration of Treatment Success, Mean (SD) [2]: 127.9 (73.01) days
- Total Duration of Treatment Success, Median [2]: 136.5 days
- Average Duration of Episodes, Mean (SD) (Baseline PGA = 3, Overall): 178.0 (94.87) days
- Average Duration of Episodes, Median (Baseline PGA = 3, Overall): 197.0 days
- Average Duration of Treatment Success, Mean (SD) (Baseline PGA = 3, Overall): 66.4 (56.88) days
- Average Duration of Treatment Success, Median (Baseline PGA = 3, Overall): 51.0 days
- Duration of 1st Episode, Median (Baseline PGA = 3, Overall): 197.0 days
- Duration of 1st Success, Mean (SD) (Baseline PGA = 3, Overall): 68.8 (57.40) days
- Duration of 1st Success, Median (Baseline PGA = 3, Overall): 56.0 days
- Duration of 2nd Episode, Mean (SD) (Baseline PGA = 3, Overall): 58.8 (46.15) days
- Duration of 2nd Episode, Median (Baseline PGA = 3, Overall): 55.0 days
- Duration of 2nd Success, Mean (SD) (Baseline PGA = 3, Overall): 31.5 (19.15) days
- Duration of 2nd Success, Median (Baseline PGA = 3, Overall): 28.5 days
- Duration of 3rd Episode, Mean (SD) (Baseline PGA = 3, Overall): 55.2 (27.44) days
- Duration of 3rd Episode, Median (Baseline PGA = 3, Overall): 57.0 days
- Duration of 3rd Success, Mean (SD) (Baseline PGA = 3, Overall): 28.0 (NE) days
- Duration of 3rd Success, Median (Baseline PGA = 3, Overall): 28.0 days
- Duration of 4th Episode, Mean (SD) (Baseline PGA = 3, Overall): 1.0 (NE) days
- Duration of 4th Episode, Median (Baseline PGA = 3, Overall): 1.0 days
- Duration of Last Episode, Mean (SD) (Baseline PGA = 3, Overall): 175.4 (98.29) days
- Duration of Last Episode, Median (Baseline PGA = 3, Overall): 197.0 days
- Duration of Last Success, Mean (SD) (Baseline PGA = 3, Overall): 64.1 (58.23) days
- Duration of Last Success, Median (Baseline PGA = 3, Overall): 51.0 days
- Total Duration of Treatment Episodes, Mean (SD) (Baseline PGA = 3, Overall): 187.9 (90.62) days
- Total Duration of Treatment Episodes, Median (Baseline PGA = 3, Overall): 198.0 days
- Total Duration of Treatment Success, Mean (SD) (Baseline PGA = 3, Overall): 75.5 (57.18) days
- Total Duration of Treatment Success, Median (Baseline PGA = 3, Overall): 64.0 days
- Average Duration of Episodes, Mean (SD) [3]: 184.7 (96.36) days
- Average Duration of Episodes, Median [3]: 198.0 days
- Average Duration of Treatment Success, Mean (SD) [3]: 63.9 (54.43) days
- Average Duration of Treatment Success, Median [3]: 48.3 days
- Duration of 1st Episode, Mean (SD) [3]: 187.1 (95.90) days
- Duration of 1st Episode, Median [3]: 198.0 days
- Duration of 1st Success, Mean (SD) [3]: 62.6 (55.19) days
- Duration of 1st Success, Median [3]: 43.0 days
- Duration of 2nd Episode, Mean (SD) [3]: 68.2 (77.66) days
- Duration of 2nd Episode, Median [3]: 30.0 days
- Duration of 2nd Success, Mean (SD) [3]: 57.0 (NE) days
- Duration of 2nd Success, Median [3]: 57.0 days
- Duration of Last Episode, Mean (SD) [3]: 182.2 (99.93) days
- Duration of Last Episode, Median [3]: 198.0 days
- Duration of Last Success, Mean (SD) [3]: 65.2 (54.03) days
- Duration of Last Success, Median [3]: 56.0 days
- Total Duration of Treatment Episodes, Mean (SD) [3]: 190.8 (95.50) days
- Total Duration of Treatment Episodes, Median [3]: 200.0 days
